# Data taken from patent US8461378B2, “Purification of fluoroalkanesulfonate salts” (E.I. du Pont de Nemours and Company, priority 2010, dated 2013).
# Assay: Solubility of TFESK in water and in aqueous K2SO3 solution
# Format: physicochemical
# Source text: Therefore, TFESK was selectively crystallized from sulfite solutions.
smiles,measurement,setting,value
"O=S(=O)([O-])C(F)(F)C(F)F.[K+] [TFESK, Potassium 1,1,2,2-tetrafluoroethanesulfonate]",solubility in 2M K2SO3 solution,2M K2SO3 solution,1-2 % by weight
same,solubility in water,water at 0° C.,25 % by weight
